# Experimental data: patent US20030040476A1, “EAG gene” (priority 1999, published 2003)
# Legend:
# hEAG2 channel [1] = test: Modulation of hEAG2 current during progesterone-induced G2-M progression in Xenopus oocytes; assay type: cell-based, human; conditions: oocytes treated with 20 μg/ml progesterone while recording; homogenous at all voltages tested
# Experimental: (§1) For Xenopus oocyte expression, the cDNA was cloned into a suitable vector containing the translation initiation sequences and the polyadenylation sequence of Xenopus b-globin. This optimizes the expression in oocytes. The template was prepared by linearization of the construct, and RNA was synthesized using the T7 promotor. The synthetic RNA was injected into stage V-VI oocytes using standard techniques (approximately 50 ng/oocyte). The currents expressed were then measured 48-96 hours after the injection using two-electrode voltage clamp.
# The modulation of hEAG2 during cell cycle was determined using the natural cell cycle arrest of oocytes in the G2 stage of the first meiotic division. The progression of the cycle through the G2-M boundary is triggered by progesterone. We have treated the oocytes with 20 μg/ml progesterone while recording the hEAG2 currents. […] Importantly, the reduction was homogenous at all voltages tested (as opposite to what happens with EAG1).
# hEAG2 channel [2] = target: T1, hEAG2 channel (Homo sapiens, UniProt Q8NCM2); test: Magnesium dependence of hEAG2 activation, two-electrode voltage clamp in Xenopus oocytes; assay type: cell-based
# T1 construct: expressed in transfected cells; host or cells: Xenopus oocytes (stage V-VI), injected with synthetic RNA
# T1 sequence (Q8NCM2 1-988): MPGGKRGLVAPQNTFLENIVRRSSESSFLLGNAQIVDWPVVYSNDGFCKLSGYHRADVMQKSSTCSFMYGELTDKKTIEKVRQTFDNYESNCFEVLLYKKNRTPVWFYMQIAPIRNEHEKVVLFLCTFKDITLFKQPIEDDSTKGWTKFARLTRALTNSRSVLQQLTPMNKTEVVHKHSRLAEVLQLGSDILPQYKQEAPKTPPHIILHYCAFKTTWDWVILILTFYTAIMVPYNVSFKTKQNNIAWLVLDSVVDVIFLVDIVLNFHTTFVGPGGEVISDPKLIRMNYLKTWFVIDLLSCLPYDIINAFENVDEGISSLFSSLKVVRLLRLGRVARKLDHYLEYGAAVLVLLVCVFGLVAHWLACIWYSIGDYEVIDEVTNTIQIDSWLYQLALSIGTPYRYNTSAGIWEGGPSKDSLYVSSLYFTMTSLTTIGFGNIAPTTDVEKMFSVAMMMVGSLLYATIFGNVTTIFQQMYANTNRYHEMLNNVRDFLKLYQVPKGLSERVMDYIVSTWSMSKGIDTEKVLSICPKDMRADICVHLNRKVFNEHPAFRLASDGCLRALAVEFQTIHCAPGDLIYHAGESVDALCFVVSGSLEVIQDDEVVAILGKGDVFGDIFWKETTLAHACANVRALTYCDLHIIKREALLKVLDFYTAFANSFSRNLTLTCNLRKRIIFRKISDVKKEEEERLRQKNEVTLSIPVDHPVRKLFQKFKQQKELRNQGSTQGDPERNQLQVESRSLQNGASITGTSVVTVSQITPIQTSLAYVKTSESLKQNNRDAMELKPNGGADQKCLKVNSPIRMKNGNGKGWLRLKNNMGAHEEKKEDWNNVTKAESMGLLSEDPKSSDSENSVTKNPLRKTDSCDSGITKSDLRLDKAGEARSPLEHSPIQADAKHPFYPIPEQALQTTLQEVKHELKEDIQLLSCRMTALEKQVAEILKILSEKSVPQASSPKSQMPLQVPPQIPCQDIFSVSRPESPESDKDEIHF
# Experimental: as §1
# The depencence on the holding potential of the time constant of activation was determined using a conditioning potential between −150 and −60 mV during 5 s prior to the test pulse. The time required to achieve 80% of the maximal amplitude in the test pulse was then plotted against the conditioned potential, and fitted with a Boltzmann distribution. Extracellular magnesium is known to slow down the activation of EAG1. We determined the magnesium dependence of hEAG2 using the protocol descibed above in the presence of different external magnesium concentrations. The value of Vhalf obtained from the fit was plotted against the magnesium concentration, giving a semimaximal effect of extracellular magnesium at 80 μM (FIG. 7).
SMILES,effect on hEAG2 current amplitude (hEAG2 channel [1]),"EC50 (hEAG2 channel [2]; hEAG2 in Xenopus oocytes, conditioning potential -150 to -60 mV for 5 s before test pulse, extracellular magnesium, read-out: apparent EC50 for the effect of magnesium (Vhalf of activation time versus Mg^2+ concentration))","slowing of activation in 2 mM Mg^2+ versus 200 μM Mg^2+ (hEAG2 channel [2]; prepulse potential -60 mV, 2 mM versus 200 μM Mg^2+)"
CC(=O)[C@H]1CC[C@H]2[C@@H]3CCC4=CC(=O)CC[C@]4(C)[C@H]3CC[C@]12C [progesterone],reduction of the current with time,,
[Mg+2] [magnesium],,80 µM,three times slower
